Results as given in patent US20060058390A1 (priority 2004, published 2006).
Like-named read-outs stand apart in the source and are kept apart here.

Assays:
[1] = male, Sprague-Dawley, rat, in vivo, 150 mg/kg
Method: Twenty-six male Sprague-Dawley rats weighing approximately 200 to 300 g were used for the study. The jugular vein of six animals were cannulated and the rest of the animals were used without any further preparation.
Dosing was conducted on two occasions. […] The drug was prepared in a suspension formulation in accordance with the present invention. The blood samples (approximately 0.5 mL/sample) were collected from each animal at predose, 15, 30 minutes, 1, 2, 4 and 6 hours postdose into microtainer tubes containing lithium heparin as an anticoagulant. Replacement blood was infused into each animal following each blood draw. […] The drug was prepared in a solution formulation. […] Blood samples were collected from each animal via the orbital sinus at predose, 2, 15, 30 minutes, 1, 2, 4 and 6 hours postdose. Each animal was bled twice. The blood was centrifuged immediately and the resulting plasma in tubes was flash frozen in liquid nitrogen and stored at approximately −70° C. until analysis.
L-Methinione can also be detected under the same HPLC conditions.
Descriptive pharmacokinetic parameters were determined by standard model independent methods (Gibaldi, M. and Perrier, D. Pharmacokinetics, Second Edition, Marcel Dekker, Inc., New York, 1982) based on the mean plasma concentration-time data. The plasma concentrations were rounded to one decimal place before the calculation. Plasma samples with concentrations below the quantifiable limit (BQL) were assigned values of zero for the calculation of mean plasma concentration.
The mean plasma concentration-time profiles are depicted in FIG. 2.

[2] = system: oxidative stress-induced ototoxicity and nephrotoxicity; details: in vivo; cited from earlier work
[3] = cited from earlier work

AUC(0-inf) of L-Methionine ([1]; iv): 326.0 µg·h/mL
Cmax of L-Methionine ([1]; iv): 161700 ng/mL
T1/2 (half-life) of L-Methionine ([1]; iv): 1.9 h
Tmax of L-Methionine ([1]; iv): 0.50 h
Mean Plasma Concentrations of L-Methionine ([1]; iv, 0 h): 132.6 ng/mL
Mean Plasma Concentrations of L-Methionine ([1]; iv, 0.03 h): 132.6 ng/mL
Mean Plasma Concentrations of L-Methionine ([1]; iv, 0.25 h): 146.5 ng/mL
Mean Plasma Concentrations of L-Methionine ([1]; iv, 0.5 h): 161.7 ng/mL
Mean Plasma Concentrations of L-Methionine ([1]; iv, 1 h): 76.1 ng/mL
Mean Plasma Concentrations of L-Methionine ([1]; iv, 2 h): 45.4 ng/mL
Mean Plasma Concentrations of L-Methionine ([1]; iv, 4 h): 23.2 ng/mL
Mean Plasma Concentrations of L-Methionine ([1]; iv, 6 h): 10.7 ng/mL
AUC(0-inf) of L-Methionine ([1]; po): 450.2 µg·h/mL
Cmax of L-Methionine ([1]; po): 47200 ng/mL
T1/2 (half-life) of L-Methionine ([1]; po): 9.9 h
Tmax of L-Methionine ([1]; po): 2.00 h
Mean Plasma Concentrations of L-Methionine ([1]; po, 0 h): 7.8 ng/mL
Mean Plasma Concentrations of L-Methionine ([1]; po, 0.5 h): 33.1 ng/mL
Mean Plasma Concentrations of L-Methionine ([1]; po, 1 h): 32.0 ng/mL
Mean Plasma Concentrations of L-Methionine ([1]; po, 2 h): 47.2 ng/mL
Mean Plasma Concentrations of L-Methionine ([1]; po, 4 h): 22.2 ng/mL
Mean Plasma Concentrations of L-Methionine ([1]; po, 6 h): 18.8 ng/mL
Mean Plasma Concentrations of L-Methionine ([1]; po, 12 h): 12.6 ng/mL
Compound: CSCC[C@H](N)C(=O)O [L-Methionine, L-methionine]
effect on oxidative stress-induced ototoxicity and nephrotoxicity associated with cisplatin [2]: effectively prevent
dosage reported safe for chronic administration ([3]; adult): 20 g/day
side-effects in human studies ([3]; most human studies): no side-effects
